In article PMC7144330, “2-Thiopyrimidine/chalcone hybrids: design, synthesis, ADMET prediction, and anticancer evaluation as STAT3/STAT5a inhibitors” (Journal of Enzyme Inhibition and Medicinal Chemistry, 2020):
Read-outs that look alike come from different tables or passages of the source.

How the values were obtained:
STAT3 [1] = tested on: STAT3; design: method as in PMID 20067773; conditions: breast cancer cells; read-out: EC50, inhibition of STAT3 function; cited from earlier work
STAT3 [2] = tested on: STAT3; design: method as in PMID 20067773; conditions: myeloma cancer cells; read-out: EC50, inhibition of STAT3 function; cited from earlier work
human leukaemia cells = tested on: human leukaemia cells; design: method as in earlier work; conditions: read-out: CC50, cytotoxic activity; cited from earlier work
K-562 = test: MTT cytotoxic assay, leukaemia K-562 cell line; format: cell-based; conditions: Homo sapiens, K562, read-out: (IC50 μM)±SD K-562
Procedure: (§1) To investigate cytotoxic activity of the final target compounds 9a–r, MTT assay was performed. Three different cell lines were used, leukaemia (K-562), breast (MCF-7) and colon (HT-29) cell lines. Cisplatin and erlotinib were the reference drugs used in this study.
(§2) All target compounds 9a–r were screened against three different cancer cell lines, leukaemia (K-562), breast (MCF-7), and colon (HT-29). MTT assay was used. Both cisplatin and erlotinib were used as the reference drugs. Cytotoxicity results are recorded in Table 1.

MCF-7 = test: MTT cytotoxic assay, breast MCF-7 cell line; format: cell-based, human; conditions: Homo sapiens, MCF7, read-out: (IC50 μM)±SD MCF-7
Procedure: as §1, §2

HT-29 = test: MTT cytotoxic assay, colon HT-29 cell line; format: cell-based; conditions: Homo sapiens, read-out: (IC50 μM)±SD HT-29
Procedure: as §1, §2

STAT3 [3] = target: T1, STAT3 (Homo sapiens, UniProt P40763); test: TransAM STAT3 activation assay on nuclear extracts of treated cells; format: cell-based; conditions: 24 h, read-out: Inhibition IC50 (µM) STAT3
T1 construct: endogenous in cells; host or cells: K-562 and MCF-7 cells (nuclear extracts)
Procedure: (§3) Both K-562 and MCF-7 cell lines were seeded overnight in plates, then 10 µM of test compounds (9a and 9r for MCF-7 cells; 9d, 9f, and 9n for K-562 cells) or reference drug pacritinib was added for 24 h. A nuclear extract kit was used to extract nuclear fractions from treated cells using the manufacture’s procedure. STAT3 and STAT5a activations were analysed using the collected nuclear extracts (20 µg) through TransAM STAT3 and STAT5a activation assay guided by the manufacture’s protocol. The obtained results were expressed in the form of mean ± SD. Each experiment was done in triplicate.
(§4) Pacritinib, an inhibitor for both STAT3 and STAT5a[49] was used in this study as a reference drug.

STAT5a = target: T2, STAT5a (Homo sapiens, UniProt P42229); test: TransAM STAT5a activation assay on nuclear extracts of treated cells; format: cell-based; conditions: 24 h, read-out: Inhibition IC50 (µM) STAT5a
T2 construct: endogenous in cells; host or cells: K-562 and MCF-7 cells (nuclear extracts)
T2 sequence (P42229 1-794): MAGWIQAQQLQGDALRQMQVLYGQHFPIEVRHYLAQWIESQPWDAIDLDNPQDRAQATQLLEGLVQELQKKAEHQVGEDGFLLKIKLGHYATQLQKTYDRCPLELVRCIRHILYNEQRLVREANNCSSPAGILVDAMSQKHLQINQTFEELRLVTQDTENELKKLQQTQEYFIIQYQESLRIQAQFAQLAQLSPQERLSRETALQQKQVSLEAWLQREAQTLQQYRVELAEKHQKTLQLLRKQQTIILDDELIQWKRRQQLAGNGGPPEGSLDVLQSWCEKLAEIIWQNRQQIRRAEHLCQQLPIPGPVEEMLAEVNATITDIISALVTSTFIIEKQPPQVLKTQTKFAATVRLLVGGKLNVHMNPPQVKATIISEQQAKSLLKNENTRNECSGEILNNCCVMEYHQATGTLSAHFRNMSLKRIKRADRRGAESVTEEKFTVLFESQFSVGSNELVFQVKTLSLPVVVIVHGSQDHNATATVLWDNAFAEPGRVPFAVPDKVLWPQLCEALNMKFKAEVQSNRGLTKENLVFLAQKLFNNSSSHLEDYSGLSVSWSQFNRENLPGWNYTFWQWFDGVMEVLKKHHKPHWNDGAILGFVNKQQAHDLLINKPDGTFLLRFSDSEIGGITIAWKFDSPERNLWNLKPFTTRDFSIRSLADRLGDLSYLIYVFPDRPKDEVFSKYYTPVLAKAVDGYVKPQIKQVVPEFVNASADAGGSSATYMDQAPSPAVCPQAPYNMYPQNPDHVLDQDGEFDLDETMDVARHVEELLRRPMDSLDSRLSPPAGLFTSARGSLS
Procedure: as §3, §4

in vitro = conditions: human

T1 sequence (P40763 whole entry): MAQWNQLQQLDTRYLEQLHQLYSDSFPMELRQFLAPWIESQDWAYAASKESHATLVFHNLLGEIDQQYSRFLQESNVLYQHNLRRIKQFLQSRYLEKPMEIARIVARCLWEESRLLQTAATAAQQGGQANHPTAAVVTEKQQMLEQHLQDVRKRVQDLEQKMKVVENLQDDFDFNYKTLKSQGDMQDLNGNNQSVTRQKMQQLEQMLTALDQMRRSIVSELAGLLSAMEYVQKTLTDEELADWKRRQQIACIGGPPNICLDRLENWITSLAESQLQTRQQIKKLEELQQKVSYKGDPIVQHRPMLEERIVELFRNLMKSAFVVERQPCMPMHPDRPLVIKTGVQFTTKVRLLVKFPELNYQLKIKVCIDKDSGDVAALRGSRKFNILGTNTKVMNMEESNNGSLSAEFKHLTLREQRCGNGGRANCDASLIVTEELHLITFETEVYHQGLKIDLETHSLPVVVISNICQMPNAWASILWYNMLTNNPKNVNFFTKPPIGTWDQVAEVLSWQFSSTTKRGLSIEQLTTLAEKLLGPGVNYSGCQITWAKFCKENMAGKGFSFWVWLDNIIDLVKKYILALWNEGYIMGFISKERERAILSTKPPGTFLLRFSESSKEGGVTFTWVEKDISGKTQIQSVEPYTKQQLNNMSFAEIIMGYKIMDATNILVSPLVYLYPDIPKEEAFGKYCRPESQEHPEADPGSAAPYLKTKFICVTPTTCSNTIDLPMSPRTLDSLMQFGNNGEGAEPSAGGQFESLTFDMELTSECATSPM

Row | Structure (SMILES) | CC50 (human leukaemia cells) | IC50 (K-562) | IC50 (MCF-7) | IC50 (HT-29) | melting point | IC50 (in vitro) | other results
2 | Cc1cccc(Nc2ccccc2C(=O)Nc2ccc(C(=O)/C=C/c3ccc(Cl)cc3)cc2)c1C [chloro-derivative of compound X] | 2.17 µM |  |  |  |  |  | 
3 | COc1ccc(/C=C/C(=O)c2ccc(NC(=O)CSc3nc(-c4ccc(Cl)cc4)cc(-c4ccc([N+](=O)[O-])cc4)n3)cc2)cc1OC [Compound 9n, (ZE)-2-[4-(4-Chlorophenyl)-6-(4-nitrophenyl)pyrimidin-2-ylthio]-N-{4-[3-(3,4-dimethoxyphenyl)acryloyl]phenyl}acetamide] |  | 1.05 ± 0.02 µM | 17.4 ± 0.75 µM | 2.1 ± 0.06 µM | 147 to 149 °C | 29.2 to 40.1 µM | IC50 (STAT3 [3]; K562 cells): 113 ± 3.22 µM; IC50 (STAT5a; K562 cells): 50.7 ± 1.26 µM
4 | COc1ccc(/C=C/C(=O)c2ccc(NC(=O)CSc3nc(-c4ccc(C)cc4)cc(-c4ccc(OC)cc4)n3)cc2)cc1 [Compound 9a, (ZE)-2-[4-(4-Methoxyphenyl)-6-p-tolylpyrimidin-2-ylthio]-N-{4-[3-(4 methoxyphenyl)acryloyl]phenyl}acetamide] |  | 18.4 ± 0.76 µM | 3.56 ± 0.14 µM | 2.2 ± 0.04 µM | 226 to 228 °C | 17.1 µM | IC50 (STAT3 [3]; MCF7 cells): 243 ± 9.24 µM; IC50 (STAT5a; MCF7 cells): 83.8 ± 3.28 µM
5 | Cc1cccc(Nc2ccccc2C(=O)Nc2ccc(C(=O)/C=C/c3ccc(N(C)C)cc3)cc2)c1C [dimethylamino-derivative of compound X] | 2.06 µM |  |  |  |  |  | 
